Columns and labels:
[1] = Half-life of the parent prodrug in plasma; assay type: ADME, cell-free; conditions: human
[2] = Half-life of the parent prodrug in porcine esterase solution; assay type: ADME, Sus scrofa; conditions: pig
[3] = Half-life in human plasma; assay type: ADME, cell-free

For `COc1ccc(NC(=O)CC(C)(C)c2c(C)cc(C)cc2OC(C)=O)cc1`, the T1/2 [1] was 53.7 min and the T1/2 [2] was 11.9 min.

In the case of `COc1ccc(NC(=O)CC(C)(C)c2c(OC)cc(OC)cc2OC(C)=O)cc1`, the half-life [3] is reported as 52 min.

— ChEMBL document CHEMBL1134989, “Synthesis and stability study of a modified phenylpropionic acid linker-based esterase-sensitive prodrug” (Bioorg Med Chem Lett, 2002)
